Measurements reported in patent publication US20150133493A1, “COUMARIN-BASED COMPOUNDS FOR THE TREATMENT OF ALZHEIMER'S DISEASE AND CANCER” (Sloan-Kettering Institute for Cancer Research, priority 2008, published 2015).
Entries after “also recorded” stand apart in the source; their conditions may differ.

What was measured:
γ-secretase = biological target: T1, γ-secretase (Homo sapiens, UniProt P49768); test: In vitro γ-secretase activity assay, Aβ42 production (ECL); format: biochemical; conditions: in words
T1 construct: endogenous in cells
Protocol: FIG. 2. In vitro characterization of coumarin-dimer allosteric GSIs against various γ-secretase cleavage products. […] The IC50 values were calculated from the dose response curves using a non-linear regression analysis in Prism software. […] The three β-amyloid-detection in vitro assays were modified from our previously reported assay (21) using a biotinylated substrate that eliminated the requirement of anti-β-amyloid biotinylated antibody. Ruthenylated antibodies that detected the -40, -42, or -38 cleavage site were incorporated to detect proteolysis indicative of γ-secretase activity. In vitro Notch assay utilized a recombinant transmembrane portion of the Notch peptide and anti-Notch1 SM320 antibody in conjunction with ruthenylated anti-rabbit secondary antibodies. Electrochemiluminescence was quantified on an Analyzer (BioVeris).
Briefly, recombinant peptide substrate was incubated with γ-secretase (40 μg/ml) in the presence or absence of test compound. […] The reaction was incubated for 2.5 hr at 37° C. and stopped by adding RIPA buffer (150 mM NaCl, 1.0% NP-40, 0.5% sodium deoxycholate, 0.1% SDS, 50 mM Tris HCl, pH 8.0). […] The amount of product was determined using synthetic peptide or recombinant standards.
Cell membranes and solubilized γ-secretase were prepared as described previously (36). The in vitro and cell γ-secretase assays detecting either Aβ38, Aβ40, or Aβ42 cleavage were performed similar as previously described (21, 36). Cleaved product was detected using ruthenylated antibodies that recognize specific APP cleavage sites (Aβ31-38*, G2-10*, or G2-11* antibody for Aβ38, Aβ40, or Aβ42 respectively). The Km and Vmax in the presence and absence of γ-secretase inhibitors were analyzed by non-linear curve fit using the software SigmaPlot 8.0 with the Michaelis-Menten equation (v=Vm [S]/(Km+[S]; v: initial rate; Vm: maximum velocity; Km: the Michaelis-Menten constant, S: substrate).

γ-secretase active site = biological target: T2, γ-secretase active site (Homo sapiens, UniProt P49768); test: Photolabeling of the γ-secretase active site (PS1-NTF) in HeLa membrane with probes L646, GY4, JC8, L505; format: binding; conditions: L458 and Compound E at 2 μM, CS-1 up to 100 μM
T2 construct: endogenous in cells; host or cells: HeLa membrane
Protocol: FIG. 4. Kinetic analysis of allosteric GSIs and evaluation of their effect on the γ-secretase active site architecture. (a) Kinetic analysis of CS1 was performed using our modified version of a previously reported in vitro γ-secretase activity assay. The inhibition kinetics were analyzed by using a non-linear curve fit with the Michaelis-Menten equation. Upper right inset: we replotted slopes against the inhibitor concentrations after performing double reciprocal conversion. (b) Schematic representation of the allosteric binding of the di-coumarin compounds to γ-secretase. This binding ultimately causes an alteration at the active site of γ-secretase. Black rectangle represents the coumarin-dimer compound. (c) The binding of L458 to the active site of γ-secretase and its interaction at various subpockets within the enzyme. (d) Chemical structure of the four photoaffinity probes utilized in the characterization of CS-1 effect on active site architecture. Hydroxyethylamine and benzophenone moieties are marked by blue and red, respectively. (e) Evaluation of CS-1 effect on the photolabeling of four probes. […] (f) Evaluation of CS-2 effect on the active site photolabeling by L505 and GY4. (g) Effect of Compound E on active site photolabling. […] Blotting was performed for PS1-NTF. The photolabeling blots are representative and were performed in triplicate.
We hypothesized that the allosteric binding of the di-coumarin compounds alters the conformation of the active site of γ-secretase and thereby preferentially affects the Aβ42 site cleavage (FIG. 4b). This raised the technical issue of how to probe the contours of the enzymatic active site. Although the structure of γ-secretase has been determined by cryoelectron microscopy (23), the resolution attained is not sufficient to investigate subtle changes within the active site. Consequently, we developed a series of active-site directed inhibitors that incorporate a photoreactive benzophenone entity into varied positions. Using these photoreactive probes, we assessed the effect of the di-coumarin inhibitor binding on the active site of γ-secretase. Since the efficiency of photoinsertion depends on the orientation of the probe and the proximity of residues within the active site, conformational change of the active site can alter the orientation of the probe and contact residues and lead to altered cross-linking efficiencies. Therefore, multiple photoactivatable, active-site directed GSIs will provide a practical approach to evaluate the changes within the active site following allosteric di-coumarin binding.
L458 contains a hydroxyethylamine transition-state isostere that mimics the tetrahedral intermediate of aspartyl proteases and this moiety hydrogen bonds with the catalytic aspartate residues of γ-secretase (20). According to the nomenclature of Schechter and Berger (24), L458 contains the P2, P1, P1′, P2′ and P3′ residues that putatively bind to the S2, S1, S1′, S2′ and S3′ subsites, respectively, within the active site of γ-secretase (FIG. 4c). We have developed a series of biotinylated, photoactivatable inhibitors based on the core structure of L458 that allow us to probe the sub-pockets of the γ-secretase active site (3, 25-26). These inhibitors all have an individual benzophenone group incorporated into L458 at either the P2, P1, P1′, or P3′ position and are referred to as L646, GY4, JC8 and L505 (FIG. 4d). Each of these inhibitors interacts and labels the S2, S1, S1′, and S3′ subsites, respectively, within the γ-secretase complex (FIG. 4c-d).
HeLa membrane was incubated with CHAPSO detergent and photoaffinity probe in the presence or absence of excess L458 or CS-1. Labeled presenilin was isolated using streptavidin beads, separated by SDS-PAGE and subsequently western blotted using anti-PS1-NTF antibodies. Again, presenilin is believed to contain the active site of γ-secretase, therefore we examined PS1 photolabeling. […]

SMILES: C[C@H](NC(=O)Cc1cc(F)cc(F)c1)C(=O)N[C@H]1N=C(c2ccccc2)c2ccccc2N(C)C1=O [Compound E]
- inhibitory potency and selectivity against γ-secretase cleavage activities in vitro (γ-secretase): did not exhibit any significant selectivity
- effect on JC-8 photolabeling of PS1-NTF (S1′ subsite) (γ-secretase active site): completely suppressed; also recorded: nonselectively blocked
- effect on L646 photolabeling of PS1-NTF (S2 subsite) (γ-secretase active site): completely suppressed; also recorded: nonselectively blocked
- effect on GY-4 photolabeling of PS1-NTF (S1 subsite) (γ-secretase active site; CS-2 at 100 μM): completely suppressed; also recorded: nonselectively blocked
- effect on L505 photolabeling of PS1-NTF (S3′ subsite) (γ-secretase active site; CS-2 at 100 μM): completely suppressed; also recorded: nonselectively blocked
